According to ChEMBL document CHEMBL3085631, “GluK1 antagonists from 6-(tetrazolyl)phenyl decahydroisoquinoline derivatives: in vitro profile and in vivo analgesic efficacy” (Bioorg Med Chem Lett, 2013):

Key:
[1] = tested on: Rattus norvegicus; test: Analgesic activity in rat assessed as reversal of carrageenan-induced thermal hyperalgesia at 10 mg/kg, sc after 30 to 40 mins relative to vehicle-treated control; format: functional; conditions: route subcutaneous
[2] = target: Glutamate receptor ionotropic, kainate 1 (Homo sapiens, UniProt P39086); test: Displacement of [3H]ATPA from human Gluk1 receptor
Sequence of Glutamate receptor ionotropic, kainate 1 (P39086 whole entry): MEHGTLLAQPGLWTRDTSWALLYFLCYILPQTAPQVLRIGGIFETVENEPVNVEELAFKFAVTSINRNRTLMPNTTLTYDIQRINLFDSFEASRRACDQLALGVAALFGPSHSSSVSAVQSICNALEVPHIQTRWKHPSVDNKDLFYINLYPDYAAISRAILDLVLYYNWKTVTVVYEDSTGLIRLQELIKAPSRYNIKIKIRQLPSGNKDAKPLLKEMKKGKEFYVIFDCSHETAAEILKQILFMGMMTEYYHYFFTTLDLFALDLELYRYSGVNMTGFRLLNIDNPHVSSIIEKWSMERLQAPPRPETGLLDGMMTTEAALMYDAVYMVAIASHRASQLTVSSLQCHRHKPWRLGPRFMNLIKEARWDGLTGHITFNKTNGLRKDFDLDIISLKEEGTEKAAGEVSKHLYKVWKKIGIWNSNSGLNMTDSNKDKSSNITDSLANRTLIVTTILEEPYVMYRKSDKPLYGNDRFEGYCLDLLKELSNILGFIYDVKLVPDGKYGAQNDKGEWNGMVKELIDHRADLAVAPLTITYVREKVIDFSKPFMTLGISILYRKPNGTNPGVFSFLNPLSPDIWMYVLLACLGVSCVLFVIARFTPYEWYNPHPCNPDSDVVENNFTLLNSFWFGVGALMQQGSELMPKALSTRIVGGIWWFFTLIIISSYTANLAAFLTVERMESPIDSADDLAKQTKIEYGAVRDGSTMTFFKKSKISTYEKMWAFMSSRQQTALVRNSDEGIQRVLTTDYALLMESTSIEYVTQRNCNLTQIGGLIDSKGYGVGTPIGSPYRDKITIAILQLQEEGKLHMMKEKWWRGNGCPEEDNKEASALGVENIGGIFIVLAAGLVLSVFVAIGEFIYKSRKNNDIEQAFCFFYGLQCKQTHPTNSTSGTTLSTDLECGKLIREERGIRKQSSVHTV

[3] = target: Glutamate receptor 2 (Homo sapiens, UniProt P42262); test: Displacement of [3H]AMPA from homomeric recombinant GluA2 receptor (unknown origin)
Sequence of Glutamate receptor 2 (P42262 whole entry): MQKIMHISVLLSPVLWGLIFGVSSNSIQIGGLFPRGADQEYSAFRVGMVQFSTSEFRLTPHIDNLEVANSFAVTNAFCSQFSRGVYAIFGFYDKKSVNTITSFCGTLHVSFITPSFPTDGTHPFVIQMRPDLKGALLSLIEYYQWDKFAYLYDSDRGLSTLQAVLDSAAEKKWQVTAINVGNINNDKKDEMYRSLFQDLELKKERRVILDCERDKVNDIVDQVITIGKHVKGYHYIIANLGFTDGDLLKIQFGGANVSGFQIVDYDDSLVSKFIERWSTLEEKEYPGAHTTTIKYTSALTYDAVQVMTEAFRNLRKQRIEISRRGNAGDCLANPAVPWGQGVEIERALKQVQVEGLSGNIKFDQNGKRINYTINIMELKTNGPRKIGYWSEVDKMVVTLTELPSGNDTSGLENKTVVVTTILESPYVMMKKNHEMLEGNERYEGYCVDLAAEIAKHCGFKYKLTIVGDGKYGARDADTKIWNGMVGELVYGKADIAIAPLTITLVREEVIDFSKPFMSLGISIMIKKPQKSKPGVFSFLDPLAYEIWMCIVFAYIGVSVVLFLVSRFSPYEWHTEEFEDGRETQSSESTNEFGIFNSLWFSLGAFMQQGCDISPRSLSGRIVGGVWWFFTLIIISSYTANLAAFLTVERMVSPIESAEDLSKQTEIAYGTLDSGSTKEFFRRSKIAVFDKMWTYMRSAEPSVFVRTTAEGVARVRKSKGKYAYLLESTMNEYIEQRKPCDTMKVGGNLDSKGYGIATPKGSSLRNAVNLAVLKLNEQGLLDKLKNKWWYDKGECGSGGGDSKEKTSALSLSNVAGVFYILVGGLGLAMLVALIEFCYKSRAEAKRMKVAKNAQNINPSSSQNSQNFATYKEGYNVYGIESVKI

[4] = tested on: Rattus norvegicus; test: Toxicity in Sprague-Dawley rat assessed as ataxia at 5 to 10 mg/kg, po by rotarod test; format: organism-based; set-up: dose 5-10 mg/kg, route oral; conditions: in vivo
[5] = tested on: Rattus norvegicus; test: Toxicity in Sprague-Dawley rat assessed as sedation at 5 to 10 mg/kg, po by rotarod test; format: organism-based; set-up: dose 5-10 mg/kg, route oral; conditions: in vivo
[6] = tested on: Rattus norvegicus; test: Analgesic activity in po dosed Sprague-Dawley rat assessed as reversal of formalin-induced late-phase paw-licking behavior after 1 hr; format: functional; conditions: read-out: MED
[7] = tested on: Rattus norvegicus; test: Analgesic activity in po dosed rat assessed as reversal of carrageenan-induced thermal hyperalgesia after 60 mins; format: functional; conditions: 1 h, read-out: MED
[8] = Plasma concentration in rat at 5 mg/kg, po after 1 hr; format: ADME, organism-based; set-up: dose 5 mg/kg, route oral
[9] = Oral bioavailability in rat at 5 mg/kg; format: ADME, organism-based; conditions: in vivo

`O=C(O)[C@@H]1C[C@H]2C[C@@H](Oc3ccccc3-c3nn[nH]n3)CC[C@H]2CN1` gave an Activity [1] of 152.6%, a Ki [2] of 1.2 µM and a Ki [3] of 16 µM.
In the case of `O=C(O)[C@@H]1C[C@H]2C[C@@H](Nc3ccccc3-c3nn[nH]n3)CC[C@H]2CN1`, the Activity [1] is reported as 124.8%, the Ki [2] is reported as 0.8 µM and the Ki [3] is reported as 6 µM.
With `Cl.O=C(O)c1ccc(C[C@H]2CC[C@H]3CN[C@H](C(=O)O)C[C@H]3C2)cc1` the Activity [1] was 67.8%.
In the case of `O=C(O)[C@@H]1C[C@H]2C[C@@H](Oc3cc(Oc4ccccc4)ccc3-c3nnn[nH]3)CC[C@H]2CN1`, the Ki [2] is reported as 17 µM and the Ki [3] is reported as 335 µM.
Work on `Cl.O=C(O)[C@@H]1C[C@H]2C[C@@H](Oc3cc(OCc4ccccc4)ccc3-c3nnn[nH]3)CC[C@H]2CN1` yielded an Activity [1] of 81.7%, a Ki [2] of 0.16 µM and a Ki [3] of 17 µM.
Compound `Cl.O=C(O)[C@@H]1C[C@H]2C[C@@H](Oc3cc(Cc4ccccc4)ccc3-c3nnn[nH]3)CC[C@H]2CN1` has an Activity [1] of 89.8%, a Ki [2] of 0.16 µM and a Ki [3] of 9.6 µM.
`O=C(O)[C@@H]1C[C@H]2C[C@@H](Oc3cc(CCc4ccccc4)ccc3-c3nnn[nH]3)CC[C@H]2CN1` showed a Ki [2] of 1.7 µM and a Ki [3] of 9.6 µM.
Compound `Cl.O=C(O)[C@@H]1C[C@H]2C[C@@H](Cc3ccccc3-c3nnn[nH]3)CC[C@H]2CN1` has an Activity [1] of 73%, a Ki [2] of 3 µM and a Ki [3] of 13 µM.
`Cl.O=C(O)[C@@H]1C[C@H]2C[C@@H](Sc3ccccc3-c3nnn[nH]3)CC[C@H]2CN1` showed an Activity [1] of 52.6%, a Ki [2] of 0.6 µM and a Ki [3] of 22 µM.
In the case of `Cl.O=C(O)[C@@H]1C[C@H]2C[C@@H](Oc3cccc(Cl)c3-c3nnn[nH]3)CC[C@H]2CN1`, the Activity [4] is reported as “Toxic”, the Activity [5] is reported as “Toxic” and the minimal effective dose [6] is reported as 1 mg/kg. It also gave a minimal effective dose [7] of 3 mg/kg, a concentration at 1 h [8] of 1020 ng/mL and an Activity [1] of 80.2%. The bioavailability [9] was 42%, the Ki [2] was 0.2 µM and the Ki [3] was 30 µM.
`COc1cccc(O[C@H]2CC[C@H]3CN[C@H](C(=O)O)C[C@H]3C2)c1-c1nnn[nH]1` showed a Ki [2] of 1.1 µM and a Ki [3] of 252 µM.
`Cc1cccc(N[C@H]2CC[C@H]3CN[C@H](C(=O)O)C[C@H]3C2)c1-c1nnn[nH]1` gave a Ki [2] of 3.2 µM and a Ki [3] of 128 µM.
For `COc1cccc(N[C@H]2CC[C@H]3CN[C@H](C(=O)O)C[C@H]3C2)c1-c1nnn[nH]1`, the Ki [2] was 12.8 µM and the Ki [3] was 181 µM.
For `O=C(O)[C@@H]1C[C@H]2C[C@@H](Nc3cccc(Cl)c3-c3nnn[nH]3)CC[C@H]2CN1`, the Ki [3] was 6.4 µM.
`O=C(O)[C@@H]1C[C@H]2C[C@@H](Oc3ccc(F)cc3-c3nnn[nH]3)CC[C@H]2CN1` showed a Ki [2] of 0.9 µM and a Ki [3] of 2.7 µM.
With `O=C(O)[C@@H]1C[C@H]2C[C@@H](Oc3ccc(Cl)cc3-c3nnn[nH]3)CC[C@H]2CN1` the Ki [2] was 0.4 µM and the Ki [3] was 0.4 µM.
Compound `O=C(O)[C@@H]1C[C@H]2C[C@@H](Nc3ccc(F)cc3-c3nnn[nH]3)CC[C@H]2CN1` has a Ki [3] of 12 µM.
Work on `Cc1ccc(-c2nnn[nH]2)c(O[C@H]2CC[C@H]3CN[C@H](C(=O)O)C[C@H]3C2)c1` yielded a Ki [2] of 1.1 µM and a Ki [3] of 5.2 µM.
In the case of `COc1ccc(-c2nnn[nH]2)c(O[C@H]2CC[C@H]3CN[C@H](C(=O)O)C[C@H]3C2)c1`, the Ki [2] is reported as 1.4 µM and the Ki [3] is reported as 2 µM.
Compound `Cl.O=C(O)[C@@H]1C[C@H]2C[C@@H](Oc3cc(-c4ccccc4)ccc3-c3nnn[nH]3)CC[C@H]2CN1` has an Activity [1] of 100.8%, a Ki [2] of 0.1 µM and a Ki [3] of 2.3 µM.
With `Cc1ccc(-c2nnn[nH]2)c(N[C@H]2CC[C@H]3CN[C@H](C(=O)O)C[C@H]3C2)c1` the Ki [2] was 2.9 µM and the Ki [3] was 6.2 µM.
`O=C(O)[C@@H]1C[C@H]2C[C@@H](Nc3cc(-c4ccccc4)ccc3-c3nnn[nH]3)CC[C@H]2CN1` gave a Ki [2] of 1.1 µM and a Ki [3] of 3.5 µM.
For `O=C(O)[C@@H]1C[C@H]2C[C@@H](Oc3c(F)cccc3-c3nnn[nH]3)CC[C@H]2CN1`, the Ki [2] was 422 µM and the Ki [3] was 450 µM.
With `O=C(O)[C@@H]1C[C@H]2C[C@@H](Oc3cc(-c4ccccc4Cl)ccc3-c3nnn[nH]3)CC[C@H]2CN1` the Ki [2] was 1 µM and the Ki [3] was 13 µM.
With `O=C(O)[C@@H]1C[C@H]2C[C@@H](Oc3cc(-c4cccc(Cl)c4)ccc3-c3nnn[nH]3)CC[C@H]2CN1` the Ki [2] was 0.7 µM and the Ki [3] was 1.7 µM.
`O=C(O)[C@@H]1C[C@H]2C[C@@H](Oc3cc(-c4ccc(Cl)cc4)ccc3-c3nnn[nH]3)CC[C@H]2CN1` gave a Ki [2] of 0.02 µM and a Ki [3] of 0.003 µM.
Compound `O=C(O)[C@@H]1C[C@H]2C[C@@H](Oc3cc(-c4nccs4)ccc3-c3nnn[nH]3)CC[C@H]2CN1` has a Ki [2] of 0.9 µM and a Ki [3] of 2.2 µM.
`O=C(O)[C@@H]1C[C@H]2C[C@@H](Oc3cc(-c4cccs4)ccc3-c3nnn[nH]3)CC[C@H]2CN1` gave a Ki [2] of 0.09 µM and a Ki [3] of 4.4 µM.
With `O=C(O)[C@@H]1C[C@H]2C[C@@H](Oc3cc(-c4cccnc4)ccc3-c3nnn[nH]3)CC[C@H]2CN1` the Ki [2] was 10 µM and the Ki [3] was 20 µM.
With `CC(C)Oc1ccc(-c2nnn[nH]2)c(O[C@H]2CC[C@H]3CN[C@H](C(=O)O)C[C@H]3C2)c1.Cl` the Activity [1] was 76.9%, the Ki [2] was 0.9 µM and the Ki [3] was 12 µM.
`O=C(O)[C@@H]1C[C@H]2C[C@@H](CCc3nn[nH]n3)CC[C@H]2CN1` [TEZAMPANEL ANHYDROUS] showed an Activity [1] of 133%.
